Measurements reported in paper PMC5426667, “Action of tyrosinase on alpha and beta-arbutin: A kinetic study” (PLoS ONE, 2017).

Columns and labels:
[1] = deprotonated form is the nucleophile; no reference given; cited from earlier work
Mushroom tyrosinase [2] = target: T1, Mushroom tyrosinase (Agaricus bisporus, UniProt C7FF04); assay: Apparent inhibition of the monophenolase activity of tyrosinase (L-tyrosine as substrate, dopachrome at 475 nm); assay type: biochemical; conditions: Lineweaver-Burk, 3 mM arbutin
Experimental: (§1) Mushroom tyrosinase (3130 U/mg) was obtained from Sigma (Madrid, Spain) and purified as previously described. Bradford’s method was used to determine the protein content using bovine serum albumin as standard.
(§2) Spectrophotometric assays were carried out with a PerkinElmer Lambda-35 spectrophotometer, online interfaced with a compatible PC 486DX microcomputer controlled by UV-Winlab software, where the kinetic data were recorded, stored, and analyzed.
The diphenolase activity of tyrosinase on L-dopa and the monophenolase activity on L-tyrosine were measured at 475 nm, the maximum absorption wavelength of dopachrome. To measure the activity of tyrosinase on L-tyrosine, the quantity of o-diphenol necessary to reach the steady state at time t = 0 was added. In this way, the characteristic lag period of the monophenolase activity, which complicates the measurement of the V0, was eliminated. This quantity is given by the equation R = [D]ss / [M]ss, where [D]ss and [M]ss are the concentrations of o-diphenol and monophenol respectively in the steady state with [M]ss ≈ [M]0. All the assays were carried out with R = 0.042. […]
The degrees of inhibition (i) were calculated using tyrosinase, L-dopa, L-tyrosine and the following formula: i (%) = [(V0-Vi)/V0] x 100, where V0 is the initial rate of the control and Vi the initial rate in the presence of the target molecule. […]

Mushroom tyrosinase [3] = target: T1, Mushroom tyrosinase; assay: Apparent inhibition of the diphenolase activity of tyrosinase (L-dopa as substrate, dopachrome at 475 nm); assay type: biochemical; set-up: purchased Sigma (Madrid, Spain); conditions: for type of inhibition of the diphenolase activity: Lineweaver-Burk, 3 mM arbutin; for degree of inhibition of the diphenolase activity (maximum reached): [E]0 = 30 nM, [L-dopa]0 = 0.5 mM, arbutin up to 30 mM
Experimental: as §1, §2
The diphenolase activity of tyrosinase on L-dopa and the monophenolase activity on L-tyrosine were measured at 475 nm, the maximum absorption wavelength of dopachrome. To measure the activity of tyrosinase on L-tyrosine, the quantity of o-diphenol necessary to reach the steady state at time t = 0 was added. In this way, the characteristic lag period of the monophenolase activity, which complicates the measurement of the V0, was eliminated. This quantity is given by the equation R = [D]ss / [M]ss, where [D]ss and [M]ss are the concentrations of o-diphenol and monophenol respectively in the steady state with [M]ss ≈ [M]0. All the assays were carried out with R = 0.042.
All of the assays were carried out at 25°C, using 30 mM phosphate buffer at pH 7.0. Three repetitions of each experiment were made.
The degrees of inhibition (i) were calculated using tyrosinase, L-dopa, L-tyrosine and the following formula: i (%) = [(V0-Vi)/V0] x 100, where V0 is the initial rate of the control and Vi the initial rate in the presence of the target molecule. The initial rates were obtained by linear regression fitting of the initial portions of each experimental recording.

Mushroom tyrosinase [4] = target: T1, Mushroom tyrosinase; assay: Kinetic characterization of arbutins as substrates of tyrosinase in the presence of MBTH; assay type: biochemical; conditions: [E]0 = 100 nM, [MBTH]0 = 0.2 mM, DMF 2%, pH 7.0, 25°C; for Km: read-out: KM (Michaelis constant) as substrate of tyrosinase
Experimental: This adduct is oxidized by another molecule of o-quinone, leading to the accumulation of o-diphenol in the medium, so, the system reach the steady state. This assay method is highly sensitive, reliable, and precise. […] The sequence of reactions is described in S1B Fig. All of the assays were carried out at 25°C, using 30 mM phosphate buffer at pH 7.0. Three repetitions of each experiment were made. Initial rate values (V0) were calculated at different substrate concentrations. The assays were carried out in saturating conditions of O2 [47-49]. The data for V0 vs. [arbutin]0 were represented and fitted to the Michaelis-Menten equation using the Sigma Plot 9.0 program for Windows, providing the maximum rate (Vmax) and the Michaelis constant (KM). […] These compounds were solubilised by adding 2% (v/v) DMF to the reaction medium. […] KM and kcat values were obtained fitting by non-linear regression (Table 2) the initial rate values vs. the concentration of substrate to the Eq 1 (Fig 7 and 7 Inset).

T1 sequence (C7FF04 1-392): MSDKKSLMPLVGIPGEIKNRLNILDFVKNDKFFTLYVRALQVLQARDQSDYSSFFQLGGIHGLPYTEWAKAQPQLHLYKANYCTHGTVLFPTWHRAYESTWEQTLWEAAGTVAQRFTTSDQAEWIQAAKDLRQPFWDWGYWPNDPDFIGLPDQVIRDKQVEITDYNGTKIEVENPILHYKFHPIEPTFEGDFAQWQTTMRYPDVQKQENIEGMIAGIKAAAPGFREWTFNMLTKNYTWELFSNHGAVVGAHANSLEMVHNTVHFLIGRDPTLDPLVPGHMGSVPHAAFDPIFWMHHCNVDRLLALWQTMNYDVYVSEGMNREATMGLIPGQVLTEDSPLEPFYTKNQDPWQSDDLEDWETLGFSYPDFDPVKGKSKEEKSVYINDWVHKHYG

type of inhibition of the monophenolase activity (Mushroom tyrosinase [2]) | type of inhibition of the diphenolase activity (Mushroom tyrosinase [3]) | degree of inhibition of the diphenolase activity (maximum reached) (Mushroom tyrosinase [3]) | kcat (catalytic constant) as substrate of tyrosinase (Mushroom tyrosinase [4]) | Km (Mushroom tyrosinase [4]) | Compound | pKa [1]
 |  |  |  |  | Cl.Cn1c(=NN)sc2ccccc21.O [MBTH, 3-methyl-2-benzothiazolinone hydrazone hydrochloride hydrate] | 5.8 ± 0.4
apparent competitive inhibition | apparent competitive inhibition | < 100% | 4.43 ± 0.33 s⁻¹ | 6.5 ± 0.58 mM | OC[C@H]1O[C@H](Oc2ccc(O)cc2)[C@H](O)[C@@H](O)[C@@H]1O [α-Arbutin, (2R,3S,4S,5R,6R)-2-(hydroxymethyl)-6-(4-hydroxyphenoxy)oxane-3,4,5-triol] | 
apparent competitive inhibition | apparent competitive inhibition | < 100% | 3.77 ± 0.29 s⁻¹ | 3 ± 0.19 mM | OC[C@H]1O[C@@H](Oc2ccc(O)cc2)[C@H](O)[C@@H](O)[C@@H]1O [β-Arbutin, (2R,3S,4S,5R,6S)-2-(hydroxymethyl)-6-(4-hydroxyphenoxy)oxane-3,4,5-triol] | 
